The cell lines below were run with C[C@@H](C(=O)N[C@@H](C1CCCCC1)C(=O)N2CCC[C@H]2C(=O)N[C@@H]3[C@@H](CC4=CC=CC=C34)OCC#CC#CCO[C@@H]5CC6=CC=CC=C6[C@@H]5NC(=O)[C@@H]7CCCN7C(=O)[C@H](C8CCCCC8)NC(=O)[C@H](C)NC)NC [AZD5582] + CC(=O)Nc1cccc(-n2c(=O)n(C3CC3)c(=O)c3c(Nc4ccc(I)cc4F)n(C)c(=O)c(C)c32)c1 [Trametinib] (partner 0.02 µM) (assay: relative viability (nuclei count vs DMSO), 5 days (fraction); higher = more cells survive). Settings: first compound 0.001581 µM.
Summary of the method: (§1)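 Relative viability equals treated-well nuclei counts divided by vehicle-well nuclei counts. Counts came from 4× images of lung cancer cell lines grown in 1536-well plates for 5 days after pin-tool dosing on the day after seeding. Dosing used one drug alone or a fixed anchor-drug dose plus five library-drug doses (not always all listed) in √10 steps, and values are medians of duplicate plates.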

| Cell Line | relative viability |
| --- | --- |
| NCI-H23 | 0.31 |
| NCI-H322M | 0.561 |
| NCI-H441 | 0.508 |
| NCI-H460 | 0.118 |
| NCI-H520 | 0.605 |
| NCI-H596 | 0.738 |
| NCI-H647 | 0.417 |
| NCI-H650 | 0.919 |
| NCI-H661 | 0.524 |
| NCI-H727 | 0.398 |
| NCI-H838 | 0.493 |
| NCI-H1355 | 0.396 |
| NCI-H1437 | 0.43 |
| NCI-H1650 | 0.447 |
| NCI-H1651 | 0.751 |
| NCI-H1666 | 0.959 |
| NCI-H1734 | 0.621 |

Same assay, conditions: first compound 0.005 µM

| Cell Line | relative viability |
| --- | --- |
| NCI-H23 | 0.37 |
| NCI-H322M | 0.62 |
| NCI-H441 | 0.636 |
| NCI-H460 | 0.243 |
| NCI-H520 | 0.784 |
| NCI-H647 | 0.477 |
| NCI-H650 | 1.05 |
| NCI-H661 | 0.697 |
| NCI-H727 | 0.383 |
| NCI-H838 | 0.582 |
| NCI-H1355 | 0.444 |
| NCI-H1437 | 0.572 |
| NCI-H1650 | 0.596 |
| NCI-H1651 | 0.847 |
| NCI-H1666 | 0.864 |
| NCI-H1734 | 0.696 |

Same assay, conditions: first compound 0.01581 µM

| Cell Line | relative viability |
| --- | --- |
| NCI-H23 | 0.359 |
| NCI-H322M | 0.496 |
| NCI-H441 | 0.385 |
| NCI-H460 | 0.144 |
| NCI-H520 | 0.791 |
| NCI-H596 | 0.8 |
| NCI-H647 | 0.443 |
| NCI-H650 | 0.987 |
| NCI-H661 | 0.589 |
| NCI-H727 | 0.37 |
| NCI-H838 | 0.405 |
| NCI-H1355 | 0.452 |
| NCI-H1437 | 0.461 |
| NCI-H1650 | 0.514 |
| NCI-H1651 | 0.8 |
| NCI-H1666 | 0.846 |
| NCI-H1734 | 0.743 |

Same assay, conditions: first compound 0.05 µM

| Cell Line | relative viability |
| --- | --- |
| NCI-H23 | 0.319 |
| NCI-H322M | 0.68 |
| NCI-H441 | 0.34 |
| NCI-H460 | 0.221 |
| NCI-H520 | 0.708 |
| NCI-H596 | 0.588 |
| NCI-H647 | 0.47 |
| NCI-H650 | 0.944 |
| NCI-H661 | 0.648 |
| NCI-H727 | 0.406 |
| NCI-H838 | 0.498 |
| NCI-H1355 | 0.409 |
| NCI-H1437 | 0.573 |
| NCI-H1650 | 0.621 |
| NCI-H1651 | 0.946 |
| NCI-H1666 | 0.852 |
| NCI-H1734 | 0.701 |

What follows are cell lines tested with Cn1nnc2c(C(N)=O)ncn2c1=O [Temozolomide] + C[C@@H](Oc1cc(-c2cnn(C3CCNCC3)c2)cnc1N)c1c(Cl)ccc(F)c1Cl [Crizotinib] (partner 1 µM) in the same assay as above. Settings: first compound 0.2 µM.
Summary of the method: as §1

| Cell Line | relative viability |
| --- | --- |
| NCI-H23 | 0.464 |
| NCI-H441 | 0.717 |
| NCI-H460 | 0.963 |
| NCI-H520 | 0.763 |
| NCI-H596 | 1.07 |
| NCI-H647 | 1.3 |
| NCI-H650 | 0.679 |
| NCI-H661 | 0.828 |
| NCI-H727 | 0.876 |
| NCI-H838 | 0.876 |
| NCI-H1355 | 1.11 |
| NCI-H1437 | 0.94 |
| NCI-H1650 | 1.08 |
| NCI-H1651 | 0.8 |
| NCI-H1666 | 0.888 |
| NCI-H1734 | 0.707 |

Same assay, conditions: first compound 0.6325 µM

| Cell Line | relative viability |
| --- | --- |
| NCI-H23 | 0.528 |
| NCI-H322M | 0.976 |
| NCI-H441 | 0.824 |
| NCI-H460 | 0.784 |
| NCI-H520 | 0.955 |
| NCI-H596 | 0.978 |
| NCI-H647 | 1.1 |
| NCI-H650 | 0.697 |
| NCI-H661 | 0.93 |
| NCI-H727 | 0.73 |
| NCI-H838 | 0.888 |
| NCI-H1355 | 1.13 |
| NCI-H1437 | 1.03 |
| NCI-H1650 | 1.12 |
| NCI-H1651 | 0.869 |
| NCI-H1666 | 0.858 |
| NCI-H1734 | 0.704 |

Same assay, conditions: first compound 2 µM

| Cell Line | relative viability |
| --- | --- |
| NCI-H23 | 0.509 |
| NCI-H322M | 1 |
| NCI-H441 | 0.775 |
| NCI-H460 | 0.973 |
| NCI-H520 | 0.811 |
| NCI-H596 | 1.06 |
| NCI-H647 | 1.09 |
| NCI-H650 | 0.607 |
| NCI-H661 | 0.942 |
| NCI-H727 | 0.812 |
| NCI-H838 | 0.894 |
| NCI-H1355 | 1.09 |
| NCI-H1437 | 0.968 |
| NCI-H1650 | 1.05 |
| NCI-H1651 | 0.818 |
| NCI-H1666 | 0.698 |
| NCI-H1734 | 0.684 |

Same assay, conditions: first compound 6.325 µM

| Cell Line | relative viability |
| --- | --- |
| NCI-H23 | 0.432 |
| NCI-H322M | 0.882 |
| NCI-H441 | 0.766 |
| NCI-H460 | 0.861 |
| NCI-H520 | 0.939 |
| NCI-H596 | 1.04 |
| NCI-H647 | 0.85 |
| NCI-H650 | 0.725 |
| NCI-H661 | 0.944 |
| NCI-H727 | 0.791 |
| NCI-H838 | 0.808 |
| NCI-H1355 | 1.11 |
| NCI-H1437 | 0.995 |
| NCI-H1650 | 0.9 |
| NCI-H1651 | 0.85 |
| NCI-H1666 | 0.648 |
| NCI-H1734 | 0.647 |

Same assay, conditions: first compound 20 µM

| Cell Line | relative viability |
| --- | --- |
| NCI-H23 | 0.547 |
| NCI-H322M | 0.715 |
| NCI-H441 | 0.78 |
| NCI-H460 | 0.888 |
| NCI-H520 | 0.947 |
| NCI-H596 | 0.884 |
| NCI-H647 | 0.318 |
| NCI-H650 | 0.669 |
| NCI-H661 | 1.02 |

Source: the supplement of paper PMC10307832
